Patent publication US20220144839A1, “INDOLE AHR INHIBITORS AND USES THEREOF” (Ikena Oncology, Inc., priority 2018, published 2022)

The compounds below were run against T1, AHR (UniProt P35869) (assay: DRE-Luciferase Reporter Assay (Alternate Method), Example 1B). Conditions: concentration which inhibits half of the luciferase activity induced by AHR activating ligand; DRE-luciferase reporter cell line.
T1 sequence (P35869 1-848): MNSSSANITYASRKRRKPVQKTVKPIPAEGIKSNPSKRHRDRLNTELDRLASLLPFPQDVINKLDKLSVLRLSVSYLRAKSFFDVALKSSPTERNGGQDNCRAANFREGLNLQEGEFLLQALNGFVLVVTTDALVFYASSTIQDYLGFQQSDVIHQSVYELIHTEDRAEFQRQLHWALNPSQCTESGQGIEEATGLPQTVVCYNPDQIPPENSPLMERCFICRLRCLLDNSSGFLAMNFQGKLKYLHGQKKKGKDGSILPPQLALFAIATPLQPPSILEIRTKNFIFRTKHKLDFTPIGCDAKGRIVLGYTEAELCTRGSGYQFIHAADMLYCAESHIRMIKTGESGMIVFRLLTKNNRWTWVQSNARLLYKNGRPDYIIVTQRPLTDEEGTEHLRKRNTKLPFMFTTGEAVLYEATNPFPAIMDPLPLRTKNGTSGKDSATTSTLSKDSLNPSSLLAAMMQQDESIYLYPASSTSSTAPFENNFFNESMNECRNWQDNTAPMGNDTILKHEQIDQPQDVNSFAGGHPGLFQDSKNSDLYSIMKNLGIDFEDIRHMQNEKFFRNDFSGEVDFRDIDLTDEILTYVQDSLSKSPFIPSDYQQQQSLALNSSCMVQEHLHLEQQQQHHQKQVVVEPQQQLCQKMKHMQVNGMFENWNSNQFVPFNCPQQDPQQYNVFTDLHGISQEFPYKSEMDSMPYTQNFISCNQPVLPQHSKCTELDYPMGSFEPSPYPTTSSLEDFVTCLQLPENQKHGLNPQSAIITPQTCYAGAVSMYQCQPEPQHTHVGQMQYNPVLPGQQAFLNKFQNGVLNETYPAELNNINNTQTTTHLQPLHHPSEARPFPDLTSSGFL
Type: cell-based
Method in brief: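 Murine (Hepa1-6, Hepa-1c1c7) or human (HepG2) cells carrying a stable or transient DRE-luciferase reporter, stimulated with an AHR agonist (e.g. TCDD, kynurenine, ITE, BNF, FICZ) plus compound at plating or after overnight culture at 37 °C. Luciferase read after 4, 15 or 24 h; IC50 as concentration halving agonist-only signal relative to no-ligand baseline.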
In the case of `COC[C@@H](C)c1cnn2c(N[C@@H]3CCc4[nH]c5ccccc5c4C3)nc(-c3cncc(F)c3)nc12` [Compound I-64b, (3R)—N-[2-(5-fluoro-3-pyridyl)-8-[(1S)-2-methoxy-1-methyl-ethyl]pyrazolo[1,5-a][1,3,5]triazin-4-yl]-2,3,4,9-tetrahydro-1H-carbazol-3-amine], the IC50 is reported as under 500 nM. In the case of `COCC[C@H](C)c1cnn2c(N[C@@H]3CCc4[nH]c5ccccc5c4C3)nc(-c3cncc(F)c3)nc12` [Compound I-65a, (3R)—N-[2-(5-Fluoro-3-pyridyl)-8-[(1S)-3-methoxy-1-methyl-propyl]pyrazolo[1,5-a][1,3,5]triazin-4-yl]-2,3,4,9-tetrahydro-1H-carbazol-3-amine], the IC50 is reported as under 500 nM. In the case of `COCC[C@@H](C)c1cnn2c(N[C@@H]3CCc4[nH]c5ccccc5c4C3)nc(-c3cncc(F)c3)nc12` [Compound I-65b, (3R)—N-[2-(5-fluoro-3-pyridyl)-8-[(1R)-3-methoxy-1-methyl-propyl]pyrazolo[1,5-a][1,3,5]triazin-4-yl]-2,3,4,9-tetrahydro-1H-carbazol-3-amine], the IC50 is reported as under 500 nM. For `CC(C)c1cnn2c(N[C@@H]3CCc4c(cc[nH]c4=O)C3)nc(-c3cncc(F)c3)nc12` [Compound I-66a, (6R)-6-[[2-(5-Fluoro-3-pyridyl)-8-isopropyl-pyrazolo[1,5-a][1,3,5]triazin-4-yl]amino]-5,6,7,8-tetrahydro-2H-isoquinolin-1-one], the IC50 was over 1500 nM. For `CC(C)c1cnn2c(N[C@H]3CCc4c(cc[nH]c4=O)C3)nc(-c3cncc(F)c3)nc12` [Compound I-66b, (6S)-6-[[2-(5-fluoro-3-pyridyl)-8-isopropyl-pyrazolo[1,5-a][1,3,5]triazin-4-yl]amino]-5,6,7,8-tetrahydro-2H-isoquinolin-1-one], the IC50 was over 1500 nM.
